Test results as given in US20210070748A1, “INHIBITORS OF BRUTONS TYROSINE KINASE” (Pharmacyclics LLC, priority 2015, published 2021).
pIC50: −log10 of the molar value.

Experiments:
Format in all cases: biochemical
EGFR = EGFR (Homo sapiens, UniProt P00533); assay: Inhibition of a panel of kinases, in vitro HotSpot kinase assay: EGFR; settings: D-compounds panel data; 1 μM ATP
Experimental: (§1) The degree of inhibition of a panel of kinases is determined using the in vitro HotSpot kinase assay (purified enzymes, ^33P-ATP, an appropriate substrate and 1 μM ATP).

JAK3 = target: T1, JAK3 (Homo sapiens, UniProt P52333); assay: Inhibition of a panel of kinases, in vitro HotSpot kinase assay: JAK3; settings: D-compounds panel data; 1 μM ATP; read-out: IC50 JAK3
T1 sequence (P52333 1-1124): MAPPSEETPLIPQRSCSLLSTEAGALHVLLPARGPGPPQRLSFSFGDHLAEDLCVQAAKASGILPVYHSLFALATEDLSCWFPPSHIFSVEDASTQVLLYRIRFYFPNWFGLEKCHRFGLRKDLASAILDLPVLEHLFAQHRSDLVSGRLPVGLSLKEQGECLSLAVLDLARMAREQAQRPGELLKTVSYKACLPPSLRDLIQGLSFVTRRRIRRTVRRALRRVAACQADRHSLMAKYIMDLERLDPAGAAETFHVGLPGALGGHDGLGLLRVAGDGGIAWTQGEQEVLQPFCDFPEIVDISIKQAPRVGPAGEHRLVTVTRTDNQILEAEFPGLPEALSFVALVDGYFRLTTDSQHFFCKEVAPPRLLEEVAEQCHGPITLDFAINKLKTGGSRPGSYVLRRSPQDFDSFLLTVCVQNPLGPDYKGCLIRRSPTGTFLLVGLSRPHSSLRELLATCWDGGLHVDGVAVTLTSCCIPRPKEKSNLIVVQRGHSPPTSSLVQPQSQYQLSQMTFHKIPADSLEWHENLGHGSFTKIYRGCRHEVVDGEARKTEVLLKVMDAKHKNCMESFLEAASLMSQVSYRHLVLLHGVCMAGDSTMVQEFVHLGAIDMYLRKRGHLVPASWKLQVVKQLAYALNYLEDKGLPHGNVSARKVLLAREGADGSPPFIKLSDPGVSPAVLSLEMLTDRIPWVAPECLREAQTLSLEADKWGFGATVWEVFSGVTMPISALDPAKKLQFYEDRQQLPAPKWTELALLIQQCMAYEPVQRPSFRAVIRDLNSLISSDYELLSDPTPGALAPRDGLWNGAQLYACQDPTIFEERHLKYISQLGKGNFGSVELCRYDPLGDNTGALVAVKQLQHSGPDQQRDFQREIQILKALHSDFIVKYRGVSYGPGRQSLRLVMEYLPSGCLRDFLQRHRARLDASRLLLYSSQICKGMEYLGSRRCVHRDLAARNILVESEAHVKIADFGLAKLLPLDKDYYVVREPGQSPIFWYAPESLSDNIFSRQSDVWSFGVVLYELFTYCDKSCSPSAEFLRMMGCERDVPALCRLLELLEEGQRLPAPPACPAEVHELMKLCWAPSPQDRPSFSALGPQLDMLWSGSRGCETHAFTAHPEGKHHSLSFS

LCK = LCK (Homo sapiens, UniProt P06239); assay: Inhibition of a panel of kinases, in vitro HotSpot kinase assay: LCK; settings: D-compounds panel data; 1 μM ATP; read-out: IC50 LCK
Sequence of LCK (P06239 whole entry): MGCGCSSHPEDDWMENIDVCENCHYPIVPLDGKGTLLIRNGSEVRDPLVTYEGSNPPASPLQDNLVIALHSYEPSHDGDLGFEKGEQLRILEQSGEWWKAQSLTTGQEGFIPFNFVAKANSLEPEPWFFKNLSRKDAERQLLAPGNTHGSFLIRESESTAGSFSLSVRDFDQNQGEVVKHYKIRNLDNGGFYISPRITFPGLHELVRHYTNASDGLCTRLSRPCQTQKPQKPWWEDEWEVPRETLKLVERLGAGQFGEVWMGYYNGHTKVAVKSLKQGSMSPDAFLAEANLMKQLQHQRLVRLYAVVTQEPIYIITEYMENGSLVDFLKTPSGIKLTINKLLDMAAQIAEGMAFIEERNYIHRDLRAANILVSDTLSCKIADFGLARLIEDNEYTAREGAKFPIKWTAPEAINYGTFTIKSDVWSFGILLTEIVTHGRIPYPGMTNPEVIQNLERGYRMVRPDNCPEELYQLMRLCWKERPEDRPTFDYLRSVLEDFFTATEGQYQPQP

BTK-WT = target: T2, BTK-WT (Homo sapiens, UniProt Q06187); assay: Btk in vitro inhibitory activity (one of Method A TR-FRET, Method B electrophoretic mobility shift, Method C radiometric filter binding); settings: D-compounds panel data; read-out: IC50 BTK-WT
T2 construct: purified from insect cells as a full-length construct containing an N-terminal 6X-His tag; His6 (N); made in house; host or cells: insect cells (baculovirus Sf21 in Method B)
T2 sequence (Q06187 whole entry): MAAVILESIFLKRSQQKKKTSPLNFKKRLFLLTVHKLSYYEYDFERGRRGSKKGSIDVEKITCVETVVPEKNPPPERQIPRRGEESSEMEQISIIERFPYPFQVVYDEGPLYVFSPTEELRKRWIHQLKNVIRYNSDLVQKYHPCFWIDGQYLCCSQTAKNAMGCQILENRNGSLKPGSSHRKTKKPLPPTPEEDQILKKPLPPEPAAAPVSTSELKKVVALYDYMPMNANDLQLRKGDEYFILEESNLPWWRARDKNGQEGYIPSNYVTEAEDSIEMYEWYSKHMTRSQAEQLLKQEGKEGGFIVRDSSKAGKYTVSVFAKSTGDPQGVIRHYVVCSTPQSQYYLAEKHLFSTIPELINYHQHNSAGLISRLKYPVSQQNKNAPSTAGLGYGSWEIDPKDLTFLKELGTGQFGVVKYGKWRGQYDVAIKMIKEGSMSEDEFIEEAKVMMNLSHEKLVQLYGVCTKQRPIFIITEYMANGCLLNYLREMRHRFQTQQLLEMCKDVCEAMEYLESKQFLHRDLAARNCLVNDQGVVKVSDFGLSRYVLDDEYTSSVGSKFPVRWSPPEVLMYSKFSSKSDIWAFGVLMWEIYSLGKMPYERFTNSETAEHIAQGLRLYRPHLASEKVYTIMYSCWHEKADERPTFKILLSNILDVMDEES

SRC = SRC (Homo sapiens, UniProt P12931); assay: Inhibition of a panel of kinases, in vitro HotSpot kinase assay: SRC; settings: D-compounds panel data; 1 μM ATP
Sequence of SRC (P12931 whole entry): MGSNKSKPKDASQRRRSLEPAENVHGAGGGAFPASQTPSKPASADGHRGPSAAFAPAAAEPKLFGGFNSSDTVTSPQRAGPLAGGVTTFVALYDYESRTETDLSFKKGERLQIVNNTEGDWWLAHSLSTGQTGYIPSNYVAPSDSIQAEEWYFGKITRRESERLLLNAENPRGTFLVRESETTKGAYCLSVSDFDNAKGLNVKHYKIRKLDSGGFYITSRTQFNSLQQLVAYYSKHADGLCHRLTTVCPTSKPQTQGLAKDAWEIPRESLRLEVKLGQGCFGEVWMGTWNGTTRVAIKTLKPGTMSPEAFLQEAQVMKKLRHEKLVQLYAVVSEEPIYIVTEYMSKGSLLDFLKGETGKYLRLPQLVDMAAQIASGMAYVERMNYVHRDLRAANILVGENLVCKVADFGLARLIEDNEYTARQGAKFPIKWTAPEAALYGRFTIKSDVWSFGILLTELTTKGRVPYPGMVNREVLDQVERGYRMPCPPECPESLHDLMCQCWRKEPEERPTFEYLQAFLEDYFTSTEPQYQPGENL
Experimental: as §1

Sequence of EGFR (P00533 25-1210): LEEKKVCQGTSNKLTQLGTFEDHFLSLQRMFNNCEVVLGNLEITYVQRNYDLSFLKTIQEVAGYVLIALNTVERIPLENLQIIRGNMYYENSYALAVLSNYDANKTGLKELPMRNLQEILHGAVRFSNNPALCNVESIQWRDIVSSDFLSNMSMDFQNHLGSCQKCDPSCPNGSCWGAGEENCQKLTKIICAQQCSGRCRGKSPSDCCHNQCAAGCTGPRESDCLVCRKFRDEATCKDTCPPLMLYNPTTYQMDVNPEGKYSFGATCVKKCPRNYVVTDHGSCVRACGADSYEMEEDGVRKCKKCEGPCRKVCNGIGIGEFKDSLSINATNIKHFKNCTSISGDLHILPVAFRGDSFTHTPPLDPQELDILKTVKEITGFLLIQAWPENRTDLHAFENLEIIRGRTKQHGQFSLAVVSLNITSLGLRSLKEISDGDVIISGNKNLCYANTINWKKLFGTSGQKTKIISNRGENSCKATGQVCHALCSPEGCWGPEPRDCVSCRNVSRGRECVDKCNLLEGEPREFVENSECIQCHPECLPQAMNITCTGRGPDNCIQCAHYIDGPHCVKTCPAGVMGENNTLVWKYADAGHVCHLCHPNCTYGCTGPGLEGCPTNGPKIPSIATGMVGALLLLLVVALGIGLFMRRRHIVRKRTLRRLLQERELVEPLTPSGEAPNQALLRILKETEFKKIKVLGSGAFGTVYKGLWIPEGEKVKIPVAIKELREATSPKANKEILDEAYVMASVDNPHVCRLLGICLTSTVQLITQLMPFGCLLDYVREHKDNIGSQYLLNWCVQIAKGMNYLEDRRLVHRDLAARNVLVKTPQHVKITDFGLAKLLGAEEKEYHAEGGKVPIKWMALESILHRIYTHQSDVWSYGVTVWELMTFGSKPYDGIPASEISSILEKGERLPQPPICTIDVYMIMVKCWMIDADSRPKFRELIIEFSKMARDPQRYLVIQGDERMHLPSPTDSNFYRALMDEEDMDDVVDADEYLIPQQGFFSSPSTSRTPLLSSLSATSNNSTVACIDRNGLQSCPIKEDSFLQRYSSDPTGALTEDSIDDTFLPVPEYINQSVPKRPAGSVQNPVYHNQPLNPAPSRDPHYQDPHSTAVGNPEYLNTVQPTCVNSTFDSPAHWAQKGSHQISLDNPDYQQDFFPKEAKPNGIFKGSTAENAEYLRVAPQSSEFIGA

Row | SMILES | pIC50 (EGFR) | pIC50 (JAK3) | pIC50 (LCK) | pIC50 (BTK-WT) | pIC50 (SRC)
1 | CN(C)c1ccc2c(=O)n([C@@H]3CCCN(c4cnc(C(N)=O)c(Nc5cnn(C)c5)n4)C3)ccc2c1 [Example D-155, 5-[(3R)-3-[6-(dimethylamino)-1-oxo-1,2-dihydroisoquinolin-2-yl]piperidin-1-yl]-3-[(1-methyl-1H-pyrazol-4-yl)amino]pyrazine-2-carboxamide] | 5.00 to 6.00 | 6.00 to 7.00 | 6.00 to 7.00 | ≥ 8.00 | 6.00 to 7.00
2 | C[C@@H]1[C@H](NC(=O)c2ccc(C(C)(C)O)c(F)c2)CCCN1c1cnc(C(N)=O)c(Nc2cnn(C)c2)n1 [Example D-160, 5-[(2R,3R)-3-[3-fluoro-4-(2-hydroxypropan-2-yl)benzamido]-2-methylpiperidin-1-yl]-3-[(1-methyl-1H-pyrazol-4-yl)amino]pyrazine-2-carboxamide] | 6.00 to 7.00 | 6.00 to 7.00 | 7.00 to 8.00 | ≥ 8.00 | 7.00 to 8.00
3 | C[C@@H]1[C@H](NC(=O)c2ccc(C3CC3)cc2)CCCN1c1cnc(C(N)=O)c(Nc2ccc(OC3CCN(C4CCCC4)CC3)cc2)n1 [Example D-101, 3-({4-[(1-cyclopentylpiperidin-4-yl)oxy]phenyl}amino)-5-[(2R,3R)-3-(4-cyclopropylbenzamido)-2-methylpiperidin-1-yl]pyrazine-2-carboxamide] | 6.00 to 7.00 | 5.00 to 6.00 | 7.00 to 8.00 | ≥ 8.00 | 7.00 to 8.00
4 | C[C@@H]1[C@H](NC(=O)c2ccc(C3CC3)cc2)CCCN1c1cnc(C(N)=O)c(Nc2ccc(C3(C)CCN(C4CCCC4)CC3)cc2)n1 [Example D-112, 3-{[4-(1-cyclopentyl-4-methylpiperidin-4-yl)phenyl]amino}-5-[(2R,3R)-3-(4-cyclopropylbenzamido)-2-methylpiperidin-1-yl]pyrazine-2-carboxamide] | 6.00 to 7.00 | 6.00 to 7.00 | > 8.00 | ≥ 8.00 | ≥ 8.00
5 | C[C@@H]1[C@H](NC(=O)c2ccc(C3CC3)cc2)CCCN1c1cnc(C(N)=O)c(Nc2ccc(N3CCC(C(C)(C)O)CC3)cc2)n1 [Example D-100, 5-[(2R,3R)-3-(4-cyclopropylbenzamido)-2-methylpiperidin-1-yl]-3-({4-[4-(2-hydroxypropan-2-yl)piperidin-1-yl]phenyl}amino)pyrazine-2-carboxamide] | 5.00 to 6.00 | 5.00 to 6.00 | 6.00 to 7.00 | ≥ 8.00 | 7.00 to 8.00
6 | C[C@@H]1CC[C@H](NC(=O)c2ccc(C3CC3)cc2)CN1c1cnc(C(N)=O)c(Nc2cnn(C)c2)n1 [Example D-145, 5-[(2R,5S)-5-(4-cyclopropylbenzamido)-2-methylpiperidin-1-yl]-3-[(1-methyl-1H-pyrazol-4-yl)amino]pyrazine-2-carboxamide] | 5.00 to 6.00 | < 5.00 | 5.00 to 6.00 | 7.00 to 8.00 | 5.00 to 6.00
7 | Cc1cc(Nc2nc(N3CCC[C@@H](n4ccc5cc(C6CC6)ccc5c4=O)C3)cnc2C(N)=O)sn1 [Example D-166, 5-[(3R)-3-(6-cyclopropyl-1-oxo-1,2-dihydroisoquinolin-2-yl)piperidin-1-yl]-3-[(3-methyl-1,2-thiazol-5-yl)amino]pyrazine-2-carboxamide] | < 5.00 | < 5.00 | < 5.00 | ≥ 8.00 | < 5.00
8 | CN(C)c1ccc2c(c1)CCN([C@@H]1CCCN(c3cnc(C(N)=O)c(Nc4cnn(C)c4)n3)C1)C2=O [Example D-156, 5-[(3R)-3-[6-(dimethylamino)-1-oxo-1,2,3,4-tetrahydroisoquinolin-2-yl]piperidin-1-yl]-3-[(1-methyl-1H-pyrazol-4-yl)amino]pyrazine-2-carboxamide] | < 5.00 | 5.00 to 6.00 | 5.00 to 6.00 | ≥ 8.00 | 6.00 to 7.00
9 | NC(=O)c1ncc(N2CCC[C@@H](n3ccc4cc(C5CC5)ccc4c3=O)C2)nc1Nc1ccc2ncccc2c1 [Example D-168, 5-[(3R)-3-(6-cyclopropyl-1-oxo-1,2-dihydroisoquinolin-2-yl)piperidin-1-yl]-3-[(quinolin-6-yl)amino]pyrazine-2-carboxamide] | < 5.00 | < 5.00 | < 5.00 | 6.00 to 7.00 | < 5.00
10 | C[C@@H]1[C@H](NC(=O)c2ccc(C3CC3)cc2F)CCCN1c1cnc(C(N)=O)c(Nc2ccc(N3CCN(C)CC3)cn2)n1 [Example D-8, 5-[(2R,3R)-3-(4-cyclopropyl-2-fluorobenzamido)-2-methylpiperidin-1-yl]-3-{[5-(4-methylpiperazin-1-yl)pyridin-2-yl]amino}pyrazine-2-carboxamide] | < 5.00 | < 5.00 | < 5.00 | 7.00 to 8.00 | < 5.00
11 | C[C@@H]1[C@H](NC(=O)c2ccc(C3CC3)cc2F)CCCN1c1cnc(C(N)=O)c(Nc2ccc(CN3CCN(C)CC3)cn2)n1 [Example D-132, 5-[(2R,3R)-3-(4-cyclopropyl-2-fluorobenzamido)-2-methylpiperidin-1-yl]-3-({5-[(4-methylpiperazin-1-yl)methyl]pyridin-2-yl}amino)pyrazine-2-carboxamide] | < 5.00 | < 5.00 | 5.00 to 6.00 | 7.00 to 8.00 | < 5.00
12 | C[C@@H]1[C@H](NC(=O)c2ccc(C3CC3)cc2F)CCCN1c1cnc(C(N)=O)c(Nc2ccc(C3(C)CCN(C4CCC4)CC3)cc2)n1 [Example D-134, 3-{[4-(1-cyclobutyl-4-methylpiperidin-4-yl)phenyl]amino}-5-[(2R,3R)-3-(4-cyclopropyl-2-fluorobenzamido)-2-methylpiperidin-1-yl]pyrazine-2-carboxamide] | 6.00 to 7.00 | 6.00 to 7.00 | 7.00 to 8.00 | ≥ 8.00 | 7.00 to 8.00
13 | C[C@@H]1[C@H](NC(=O)c2ccc(C3CC3)cc2F)CCCN1c1cnc(C(N)=O)c(Nc2ccc(N3CCN(C)CC3)cc2)c1 [Example D-126, 5-[(2R,3R)-3-(4-cyclopropyl-2-fluorobenzamido)-2-methylpiperidin-1-yl]-3-{[4-(4-methylpiperazin-1-yl)phenyl]amino}pyridine-2-carboxamide] | < 5.00 | < 5.00 | 6.00 to 7.00 | 7.00 to 8.00 | 6.00 to 7.00
14 | C[C@H]1CC[C@@H](NC(=O)c2ccc(C3CC3)cc2)CN1c1cnc(C(N)=O)c(Nc2ccc(N3CCN(C)CC3)c(F)c2)n1 [Example D-150, 5-[(2S,5R)-5-(4-cyclopropylbenzamido)-2-methylpiperidin-1-yl]-3-{[3-fluoro-4-(4-methylpiperazin-1-yl)phenyl]amino}pyrazine-2-carboxamide] | 6.00 to 7.00 | 5.00 to 6.00 | 7.00 to 8.00 | ≥ 8.00 | 7.00 to 8.00
15 | C[C@@H]1[C@H](NC(=O)Nc2cccnc2)CCCN1c1cnc(C(N)=O)c(Nc2ccc(C3(C)CCN(C4CCCC4)CC3)cc2)n1 [Example D-9, 3-{[4-(1-cyclopentyl-4-methylpiperidin-4-yl)phenyl]amino}-5-[(2R,3R)-2-methyl-3-{[(pyridin-3-yl)carbamoyl]amino}piperidin-1-yl]pyrazine-2-carboxamide] | 7.00 to 8.00 | 6.00 to 7.00 | > 8.00 | ≥ 8.00 | ≥ 8.00
16 | C[C@@H]1[C@H](NC(=O)N(C)C)CCCN1c1cnc(C(N)=O)c(Nc2cc(CN3CCOCC3)ns2)n1 [Example D-118, 5-[(2R,3R)-3-[(dimethylcarbamoyl)amino]-2-methylpiperidin-1-yl]-3-{[3-(morpholin-4-ylmethyl)-1,2-thiazol-5-yl]amino}pyrazine-2-carboxamide] | 5.00 to 6.00 | 5.00 to 6.00 | 6.00 to 7.00 | ≥ 8.00 | 6.00 to 7.00
